# Assay results from PubChem BioAssay AID1508604 (National Center for Advancing Translational Sciences (NCATS), 2020).
# System: CD-1 mouse liver cytosol, LC/MS substrate depletion half-life
# Assay: NCATS Mouse Liver Cytosol Stability Profiling
# Settings: at 1 µM; higher = more stable
# Method: Assay submitter (PI): Pranav Shah Ph.D. NIH Center for Advancing Translational Sciences 9800 Medical Center Dr, Rockville MD, 20850 Over the last few decades, chemists have become skilled at designing compounds that avoid cytochrome P (CYP) 450 mediated metabolism. Typical screening assays are performed in liver microsomal fractions and it is possible to overlook the contribution of cytosolic enzymes until much later in the drug discovery process. Few data exist on cytosolic enzyme-mediated metabolism and no reliable tools are available to chemists to help design away from such liabilities. In this study, we screened 1450 compounds for liver cytosol-mediated metabolic stability and extracted transformation rules that might help medicinal chemists in optimizing compounds with these liabilities. […] Matched molecular pairs analysis was performed in conjunction with qualitative-structure activity relationship modeling to identify chemical structure transformations affecting cytosolic stability. The transformation rules were prospectively validated on the test set. In addition, selected rules were validated on a diverse chemical library and the resulting pairs were experimentally tested to confirm whether the identified transformations could be generalized. The validation results, comprising nearly 250 library compounds and corresponding half-life data, are made publicly available. The datasets were also used to generate in silico classification models, based on different molecular descriptors and machine learning methods, to predict cytosol-mediated liabilities. To the best of our knowledge, this is the first systematic in silico effort to address cytosolic enzyme-mediated liabilities (Shah 2020). Reference: Shah, P., Siramshetty, V.B., Zakharov, A.V. et al. Predicting liver cytosol stability of small molecules. J Cheminform 12, 21 (2020). https://doi.org/10.1186/s13321-020-00426-7
# Compounds are classified as unstable (t 1/2 < 30 min) or stable (t 1/2 > 30 min). […] Reference: 1. Shah, P. et al. An Automated High-Throughput Metabolic Stability Assay Using an Integrated High-Resolution Accurate Mass Method and Automated Data Analysis Software. Drug Metab Dispos 44, 1653-1661 (2016). PMID 27417180
row,SMILES,half-life
1,COc1cccc(C(=O)NCC2CCCN(Cc3ccn[nH]3)C2)c1OC (centres undefined),> 2 h
2,O=C1[C@H]2CN(Cc3ccc(Cl)c(F)c3)C[C@H]2C(=O)N1Cc1ccc2c(c1)OCO2,0.921 h
3,CN1c2cc(C(=O)Nc3ccc(Cl)cc3)ccc2C(=O)N2CCCCCC21 (centres undefined),1.06 h
4,CN1c2cc(C(=O)Nc3ccc(Cl)cc3)ccc2C(=O)N2CCCCC21 (centres undefined),1.39 h
5,O=C1NC2(CCN(C(=O)c3ccc(Cl)c(F)c3)CC2)CC1c1ccccc1 (centres undefined),1.43 h
6,Cc1ccc(-c2ccc3nnc(CNC(=O)c4ccc(Cl)cc4)n3n2)cc1,> 2 h
7,O=C1NC2(CCN(C(=O)c3ccc(Cl)cc3)CC2)CC1c1ccccc1 (centres undefined),> 2 h
8,CN(C1CCOCC1)C1CCN(C(=O)c2ccc(Cl)cc2)CC1,> 2 h
9,O=C(Nc1cccc(-c2nnc3n2CCCC3)c1)c1ccn[nH]1,> 2 h
10,CN1c2cc(C(=O)Nc3ccc(Cl)c(F)c3)ccc2C(=O)N2CCCCC21 (centres undefined),0.524 h
11,CN(C1CCOCC1)C1CCN(C(=O)c2ccn[nH]2)CC1,> 2 h
12,COc1cc(=O)n2c(c1C(=O)Nc1ccc(Cl)c(F)c1)CCCC2,1.47 h
13,OCC1(CN2CCCC2)CCN(Cc2ccc(Cl)c(F)c2)CC1,1.21 h
14,OCC1(CN2CCCC2)CCN(Cc2ccc(Cl)cc2)CC1,0.908 h
15,Cc1noc(-c2nc(-c3ccc(Cl)cc3)no2)n1,0.26 h
16,CN1c2cc(C(=O)Nc3ccc(Cl)c(F)c3)ccc2C(=O)N2CCCCCC21 (centres undefined),0.383 h
17,CCOc1cc(=O)n2c(c1C(=O)Nc1ccc(Cl)cc1)CCCC2,1.57 h
18,COc1cc(=O)n2c(c1C(=O)Nc1ccc(Cl)cc1)CCCC2,> 2 h
19,CCOc1cc(=O)n2c(c1C(=O)Nc1ccc(Cl)c(F)c1)CCCC2,1.34 h
20,COCC1CN(C(C)=O)CC12CCN(Cc1ccc(Cl)c(F)c1)CC2 (centres undefined),1.36 h
21,O=C1OCC2(CCN(Cc3ccn[nH]3)C2)N1CCN1CCOCC1 (centres undefined),> 2 h
22,O=C1OCC2(CCN(Cc3ccc(Cl)cc3)C2)N1CCN1CCOCC1 (centres undefined),> 2 h
23,CCN1c2cc(C(=O)Nc3ccc(Cl)c(F)c3)ccc2C(=O)N2CCCCC21 (centres undefined),0.412 h
24,COCC1CN(Cc2ccc(Cl)c(F)c2)CC12CCNCC2 (centres undefined),> 2 h
25,O=C(Nc1ccc(-c2nnc3n2CCCC3)cc1)c1ccn[nH]1,> 2 h
26,CCN1c2cc(C(=O)Nc3ccc(Cl)c(F)c3)ccc2C(=O)N2CCCCCC21 (centres undefined),0.904 h
27,CCN1c2cc(C(=O)Nc3ccc(Cl)cc3)ccc2C(=O)N2CCCCCC21 (centres undefined),0.935 h

# Further lines, results first:
row,half-life,SMILES
1,1.11 h,O=C1[C@H]2CN(Cc3ccc(Cl)cc3)C[C@H]2C(=O)N1Cc1ccc2c(c1)OCO2
2,0.621 h,O=C1[C@H]2CN(Cc3ccc(Cl)c(F)c3)C[C@H]2C(=O)N1CCc1ccccc1
3,1.95 h,O=C(Nc1ccc(-c2nnc3n2CCCC3)cc1)c1ccc(Cl)cc1
4,> 2 h,COCC1CN(C(C)=O)CC12CCN(Cc1ccc(Cl)cc1)CC2 (centres undefined)
5,> 2 h,Cc1ccc2nc(CO[C@H]3CN(Cc4ccc(Cl)cc4)C[C@H]3F)[nH]c2c1
6,> 2 h,O=c1[nH]c(N2CCOCC2)nc2c1CCN(Cc1ccc(Cl)cc1)CC2
7,0.945 h,FC(F)(F)c1ccc2nc([C@H]3CCN(Cc4ccc(Cl)cc4)C3)[nH]c2c1
8,> 2 h,COCC1CN(Cc2ccc(Cl)cc2)CC12CCNCC2 (centres undefined)
9,> 2 h,CN(C)c1nc2c(c(=O)[nH]1)CCN(Cc1ccc(Cl)c(F)c1)CC2
10,> 2 h,COc1cccc(C(=O)NCC2CCCN(Cc3ccc(Cl)cc3)C2)c1OC (centres undefined)
11,0.941 h,O=C(Nc1cccc(-c2nnc3n2CCCC3)c1)c1ccc(Cl)cc1
12,1.91 h,CN(C)c1nc2c(c(=O)[nH]1)CCN(Cc1ccc(Cl)cc1)CC2
13,1.37 h,COc1ccc(CN2C[C@H]3CN(Cc4ccc(Cl)cc4)CCN3C2=O)cc1
14,1.94 h,CN1C(=O)CO[C@H]2CN(Cc3ccc(Cl)cc3)C[C@H]21
15,1.24 h,CN(Cc1cccnc1)c1nc2c(c(=O)[nH]1)CCN(Cc1ccc(Cl)cc1)CC2
16,> 2 h,Cn1c([C@H]2CCN(Cc3ccc(Cl)cc3)C2)nc2ccccc21
17,> 2 h,CN1CCN(c2nc3c(c(=O)[nH]2)CCN(Cc2ccc(Cl)c(F)c2)CC3)CC1
18,1.54 h,O=c1[nH]c(N2CCOCC2)nc2c1CCN(Cc1ccc(Cl)c(F)c1)CC2
19,> 2 h,CN1CCN(c2nc3c(c(=O)[nH]2)CCN(Cc2ccc(Cl)cc2)CC3)CC1
20,0.792 h,O=C1[C@H]2CN(Cc3ccc(Cl)cc3)C[C@H]2C(=O)N1CCc1ccccc1
21,0.394 h,Cc1cccc(-c2noc([C@@H]3C[C@@H](O)CN3Cc3ccc(Cl)cc3)n2)c1
22,0.429 h,CCN1c2cc(C(=O)Nc3ccc(Cl)cc3)ccc2C(=O)N2CCCCC21 (centres undefined)
